Data published in US9592183B2, “Inhibitor of endothelin action and skin-whitening agent” (Kao Corporation, priority 2010, dated 2017).
Entries after “also recorded” stand apart in the source; their conditions may differ.

Experiments:
Type in all cases: cell-based
[1] = test system: endothelin (ET-1)-induced rise in intracellular calcium concentration in normal human neonatal epidermal melanocytes (NHEMs); test: Endothelin action-suppressing effect: endothelin-induced rise in intracellular calcium (Fluo4-AM, FDSS); settings: for Effect of suppressing endothelin action (in words): 50 μM; for Rate of rise in intracellular Ca concentration: pretreated 1 minute, ET-1 100 nM, relative value, control = 100, N=6
Method: Normal human neonatal epidermal melanocytes (NHEMs, KURABO INDUSTRIES LTD.) were seeded at 3×10^4 cells/well (200 μL/well) in 96-well plates for use in fluorometry, and cultured at 37° C. under 5% CO2. The medium used was PMA (−), growth additive (HMGS)-containing Medium 254.
After culture for 3 days, the medium was removed from the culture plate by decantation, and replaced with an assay buffer containing a reagent Fluo4-AM for intracellular Ca^2++ measurement, which was followed by incubation at 37° C. for 1 hour. Subsequently, 20 seconds after the start of the measurement, the compound at a predetermined concentration was pretreated for 1 minute in a FDSS (Functional Drug Screening System) instrument, and then endothelin (ET-1, 100 nM final concentration) as a ligand was added to the wells. Fluo4-AM fluorescence was detected at the measurement wavelengths Ex. 480 nm and Em. 540 nm over time from the start of the measurement to 5 minutes later.
For each compound, the rate (%) of rise in intracellular calcium (calcium ion) concentration was calculated as a relative value (%) when an increase (Max ratio−Min ratio) in Fluo4-AM fluorescence in a control was normalized as 100. The suppressing effect of endothelin action was evaluated based on the calculated rate. In the control used, ethanol or a 10 to 95 v/v % aqueous ethanol solution was added at a final concentration of 0.1 to 0.5 v/v %. […]
The compound prepared as described above was pretreated at the final concentration shown in Table 3 and subjected to the assay system. Then, the rate of endothelin-induced rise in Ca concentration was calculated (N=6). […]

[2] = test system: melanocyte-containing, 3-D cultured skin model (MEL300A); test: Melanin production-suppressing effect in 3-D cultured skin model stimulated with ET-1 and SCF; settings: 14 days; for Effect on melanin content / melanin production (in words): 3-D skin model
Method: (§1) A melanocyte-containing, 3-D cultured skin model (MEL300A, KURABO INDUSTRIES LTD.) was cultured at 37° C. under 5% CO2 using an EPI-100-NMM113 medium to which endothelin-1 (ET-1) as a melanocyte activator and SCF (stem cell growth factor) were each added at a final concentration of 10 nM. From the first day of the culture, the baeomycesic acid was added at a final concentration of 50 μM (N=2). The medium was refreshed once every three days. After 14 days, the skin model was washed with PBS and photographed. Subsequently, the cell respiration activity was measured using the Alamar Blue reagent to confirm that the final concentration was not cytotoxic (the results are not shown).
Subsequently, the skin model cup was washed with PBS, and the skin sheet was removed with tweezers, transferred into a tube, and washed three times with PBS. The skin sheet was washed three times with 50% ethanol and twice with 100% ethanol, and then allowed to stand overnight at room temperature, so that it was completely dried. After 200 μL of 2 M NaOH was added, the skin sheet was dissolved at 100° C. A supernatant obtained by centrifugation of the solution was measured for absorbance at a wavelength of 405 nm, and then the melanin content was calculated. The melanin content was expressed as a relative value (%) when the melanin content in a control was normalized as 100. In the control used, ethanol or a 10 to 95 v/v % aqueous ethanol solution was added at a final concentration of 0.1 to 0.5 v/v %.

[3] = test system: melanocyte-containing, 3-D cultured skin model (MEL300A); test: Cell respiration activity (Alamar Blue) of the skin model; settings: final concentration 50 μM, after 14 days; results not shown
Method: as §1

Row | Structure (SMILES) | Effect of suppressing endothelin action (in words) [1] | Rate of rise in intracellular Ca concentration ([1]; compound 50 μM) [%] | Suppression of endothelin-induced rise in intracellular Ca concentration ([1]; compound 50 μM, relative to control) | Effect on melanin content / melanin production (in words) ([2]; ET-1 and SCF each 10 nM) | Reduction in melanin content in the skin tissue relative to the control system ([2]; 50 μM, ET-1 and SCF each 10 nM, FIG. 3, N=2) | Skin colour of the skin sheet (photograph, FIG. 2) ([2]; 50 μM, compared with the control system) | Cytotoxicity (cell respiration activity, Alamar Blue) [3]
1 | COc1cc(C)c(C(=O)Oc2cc(C)c(C(=O)O)c(O)c2C)c(O)c1C(=O)O [Squamatic Acid, squamatic acid, reference compound] | almost no effect of suppressing endothelin action | 95.9 | about 4% | no significant reduction in melanin content; also recorded: almost no effect of suppressing melanin production |  |  | 
2 | COc1cc(C)c(C(=O)Oc2cc(C)c(C(=O)O)c(O)c2C)c(O)c1C [Barbatic Acid, Barbatic acid] |  | 38.4 |  |  |  |  | 
3 | COc1cc(C)c(C(=O)Oc2cc(C)c(C(=O)O)c(O)c2C)c(O)c1C=O [Baeomycesic Acid, baeomycesic acid] | significantly suppresses the rise in intracellular Ca concentration | 52.7 |  | significantly suppresses melanin production | at least 40% | light skin color and suppressed skin blackening | not cytotoxic
4 | COc1cc(C)c(C(=O)Oc2cc(C)c(C(=O)O)c(O)c2C)c(OC)c1C [Diffractaic Acid, Diffractaic acid] |  | 28.0 |  |  |  |  | 
